Patent publication US12398185B2, “Peptoid blocking O-GlcNAcylated NF-kappaB c-Rel” (Case Western Reserve University, priority 2019, dated 2025)
Blank lines part the entries; values can stand above or below the compound they belong to. Non-standard residues stand in square brackets, D forms with d. Residues, ends and D or L forms follow the SMILES beside them. NFurfurylGly = O=C(O)CNCc1ccco1; Gly(N-CH2CH2OH) = O=C(O)CNCCO; Nphe = O=C(O)CNCc1ccccc1; NPrGly = CCCNCC(=O)O

Key:
Jurket cells = experiment: Toxicity, cell death by propidium iodide staining and flow cytometry, Jurkat; assay type: cell-based
Protocol: (§1) The toxicity of Compound 2 was studied at 100 μM and 200 μM concentrations in Jurket cells (FIG. 5, left), BJAB B cells (FIG. 5, middle left), human primary CD4^+ T cells (FIG. 5, middle right), and human primary monocytes (FIG. 5, right). Cell death was assessed by propidium iodide staining and flow cytometry. […] Treatment with cycloheximide (CHX) (Sigma Aldrich), a generic inhibitor of translation, was used as a positive control for cell death induction.

BJAB B cells = experiment: Toxicity, cell death by propidium iodide staining and flow cytometry, BJAB; assay type: cell-based
Protocol: as §1

[1] = system: human primary CD4+ T cells; experiment: Toxicity, cell death by propidium iodide staining and flow cytometry, primary CD4+ T cells; assay type: cell-based
Protocol: as §1

O-GlcNAcylated c-Rel [2] = molecular target: T1, O-GlcNAcylated c-Rel (Homo sapiens, UniProt Q04864); experiment: TCR-induced O-GlcNAcylation-dependent GMCSF and IL-2 expression in Jurkat T cells; assay type: cell-based; details: for expression of GMCSF / expression of IL-2: Compound 2 100 μM and 200 μM, 16 hours, FIG. 3
T1 construct: endogenous in cells; host or cells: Jurkat T cells
T1 sequence (Q04864 1-619): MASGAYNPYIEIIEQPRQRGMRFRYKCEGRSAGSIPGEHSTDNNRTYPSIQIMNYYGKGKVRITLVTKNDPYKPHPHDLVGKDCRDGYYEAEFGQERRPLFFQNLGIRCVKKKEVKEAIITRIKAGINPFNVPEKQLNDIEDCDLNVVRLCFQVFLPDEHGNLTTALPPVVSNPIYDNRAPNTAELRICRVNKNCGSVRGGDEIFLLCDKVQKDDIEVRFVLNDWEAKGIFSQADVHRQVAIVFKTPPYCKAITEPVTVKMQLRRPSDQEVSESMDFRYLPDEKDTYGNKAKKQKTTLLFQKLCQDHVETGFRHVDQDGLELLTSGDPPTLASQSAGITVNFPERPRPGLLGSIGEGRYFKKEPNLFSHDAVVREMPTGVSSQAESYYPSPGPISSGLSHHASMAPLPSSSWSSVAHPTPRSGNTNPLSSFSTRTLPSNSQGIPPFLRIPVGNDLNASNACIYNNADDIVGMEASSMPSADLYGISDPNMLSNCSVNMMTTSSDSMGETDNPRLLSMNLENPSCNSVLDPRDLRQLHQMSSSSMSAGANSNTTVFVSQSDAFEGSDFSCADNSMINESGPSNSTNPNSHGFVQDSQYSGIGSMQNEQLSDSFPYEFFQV
Protocol: It is further known that a mutation of c-Rel at S350 completely abrogates T cell receptor (TCR)-induced O-GlcNAcylation-dependent expression of GMCSF and IL-2 (Ramakrishnan, 2013). Thus, the specific inhibition of c-Rel O-GlcNAcylation by Compound 2 was studied. Jurkat cells were grown in RPMI medium at 1×10^6 cells/2 mL. The cells were treated with compound 2 (100 μM and 200 μM) for 16 hours. Cell death was assessed by propidium iodide (Biolegend) staining and flow cytometry. Following treatment with Compound 2, the resulting expression of GMCSF and IL-2 was measured. […] Further, treatment with Compound 2 specifically affected only the O-GlcNAcylation-dependent enhancement of IL-2 and GMCSF expression.
The range of concentrations at which Compound 2 is effective in suppression O-GlcNAcylation c-Rel function was studied. Jurket cells were exposed to Compound 2 in concentrations of 2 mM, 500 μM, 200 μM, 100 μM, 50 μM and 10 μM peptoid on TCR-induced GMCSF expression.
The effect of the scrambled peptoid, Compound 3, was also studied (FIG. 3, bottom right panel).

O-GlcNAcylated c-Rel [3] = molecular target: T2, O-GlcNAcylated c-Rel (Homo sapiens, UniProt Q04864); experiment: TCR-induced O-GlcNAcylated-c-Rel-dependent gene expression in primary CD4+ T cells; assay type: cell-based; details: 100 μM
T2 construct: endogenous in cells; host or cells: primary CD4+ T cells from human PBMC
T2 sequence (Q04864 2-587 isoform Q04864-2): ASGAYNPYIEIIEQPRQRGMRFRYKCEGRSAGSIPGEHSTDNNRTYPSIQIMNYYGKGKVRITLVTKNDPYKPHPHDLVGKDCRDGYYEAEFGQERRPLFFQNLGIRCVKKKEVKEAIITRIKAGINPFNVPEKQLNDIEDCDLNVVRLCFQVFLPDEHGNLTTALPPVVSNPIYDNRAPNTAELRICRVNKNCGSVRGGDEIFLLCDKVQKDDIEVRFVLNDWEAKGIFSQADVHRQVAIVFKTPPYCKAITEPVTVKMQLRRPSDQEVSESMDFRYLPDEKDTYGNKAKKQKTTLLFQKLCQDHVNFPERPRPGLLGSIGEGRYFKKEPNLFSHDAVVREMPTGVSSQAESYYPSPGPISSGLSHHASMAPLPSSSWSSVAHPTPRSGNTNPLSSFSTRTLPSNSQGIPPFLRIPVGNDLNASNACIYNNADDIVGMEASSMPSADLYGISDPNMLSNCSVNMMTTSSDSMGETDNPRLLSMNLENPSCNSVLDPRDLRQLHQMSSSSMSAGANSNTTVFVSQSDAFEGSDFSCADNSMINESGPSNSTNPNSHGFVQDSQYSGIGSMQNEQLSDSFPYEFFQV
Protocol: The effect of Compound 2 was studied in primary CD4^+ T cells isolated from human peripheral blood mononuclear cells. CD4+ T cells were […] were isolated by magnetic sorting (Miltenyi Biotec) and cultured in supplemented RPMI medium. Cells were treated with 100 μM of Compound 2 twice—at the start of the experiment and at 24 hrs.

B cells (BJAB) = experiment: Non-specific activity in B cells; assay type: cell-based
Protocol: (§2) Compound 2 was further studied in B cells (BJAB) and macrophages (RAW 264.7). BJAB cells were grown in RPMI medium and RAW 264.7 cells were grown in DMEM medium supplemented with 100 U/mL penicillin/streptomycin, 4 mM L-glutamine and 10% fetal bovine serum.

macrophages (RAW 264.7) = experiment: Non-specific activity in macrophages; assay type: cell-based; details: RAW 264.7 cells
Protocol: as §2

human primary monocytes = experiment: Toxicity, cell death by propidium iodide staining and flow cytometry, primary monocytes; assay type: cell-based; details: 100 μM and 200 μM, 40 hours post-treatment
Protocol: as §1

c-Rel = molecular target: T3, c-Rel (Homo sapiens, UniProt Q04864); experiment: Nuclear translocation of c-Rel, Western blot of cytoplasmic and nuclear extracts; assay type: cell-based; details: FIG. 6 top
T3 construct: endogenous in cells
T3 sequence (Q04864 1-619): T1 sequence (Q04864 1-619)
Protocol: Activation of c-Rel involves signal-induced translocation of c-Rel from the cytoplasm to the nucleus and its subsequent DNA binding and gene expression. Thus, the effect of treatment with Compound 2 and Compound 3 (comparative) on nuclear translocation of c-Rel were examined. Cytoplasmic and nuclear extracts were prepared and Western blotting was performed as described in DeJesus, T. J. and Ramakrishnan, P. “NF-kappaB c-Rel Dictates the Inflammatory Threshold by Acting as a Transcriptional Repressor.” iScience 23, 100876 (2020).

O-GlcNAcylated c-Rel [4] = molecular target: T1, O-GlcNAcylated c-Rel; experiment: Oligonucleotide pull down assay, c-Rel binding to CD28RE DNA; details: Jurket cells, anti-CD3/CD28 and Thiamet-G; Compound 2 at 50 μM
Protocol: Oligonucleotide pull down assays were performed to examine whether Compound 2 binds to O-GlcNAcylated c-Rel and thus, competitively prevents its binding to CD28RE. Jurket cells were treated with anti-CD3/CD28 antibodies to trigger TCR activation and c-Rel nuclear translocation. Cells were contacted with Thiamet-G (an O-GlcNAse inhibitor) (Sigma Aldrich) to enhance cellular O-GlcNAcylation.

Leukemia K562 cells = experiment: Cell death in leukemia K562 cells; assay type: cell-based; details: Compound 2 at 100 μM; compared with OSMI1 at 50 μM; FIG. 8
Protocol: The effect of Compound 2 on […] cells was studied. Leukemia K562 cells were treated with HBP inhibitor OSMI1 (50 μM) or Compound 2 (100 μM). Scrambled peptoid Compound 3 was used as a control.

[5] = human primary T-cells, treated twice (start and 24 hrs)

Compound: C[C@@H]1C[C@@H]([C@H](O)CC2CC(=O)NC(=O)C2)C(=O)[C@@H](C)C1 [CHX, cycloheximide, reference compound]
cell death, positive control (Jurket cells; Jurkat cells, 5 μg/mL, 16 hours post-treatment): significant cell death
cell death, positive control (BJAB B cells; 5 μg/mL, 16 hours post-treatment): significant cell death
cell death, positive control ([1]; human primary T cells, 5 μg/mL, 16 hours post-treatment): significant cell death

Compound: CCCNCC(=O)N(CC(=O)N(CC(=O)N(CCO)CC(N)=O)Cc1ccccc1)Cc1ccco1 [Compound 2] (H-[NPrGly][NFurfurylGly][Nphe][Gly(N-CH2CH2OH)]-NH2)
TCR-induced expression levels of IL-2 and GMCSF (not O-GlcNAcylation-dependent) (O-GlcNAcylated c-Rel [2]): did not block
O-GlcNAcylation-dependent GMCSF expression (O-GlcNAcylated c-Rel [2]; 200 μM): near complete suppression
GMCSF expression levels at higher concentrations (O-GlcNAcylated c-Rel [2]; 500 μM and 2 mM): did not further decrease
expression of GMCSF (O-GlcNAcylated c-Rel [2]): significantly decreased
expression of IL-2 (O-GlcNAcylated c-Rel [2]): significantly decreased
TCR-induced O-GlcNAcylation-dependent increase in expression of GMCSF (O-GlcNAcylated c-Rel [3]; [5]): effectively and significantly decreased
TCR-induced O-GlcNAcylation-dependent increase in expression of IL-2 (O-GlcNAcylated c-Rel [3]; [5]): effectively and significantly decreased
TCR-induced expression level of GMCSF, IL-2 and other NF-kappaB-induced genes such as A20 and I-kappa-B-alpha (O-GlcNAcylated c-Rel [3]; primary T cells): did not block
non-specific activity (B cells (BJAB)): does not exhibit any non-specific activity
non-specific activity (macrophages (RAW 264.7)): does not exhibit any non-specific activity
cell death (Jurket cells; Jurket cells, 100 μM and 200 μM, 40 hours post-treatment): non-significant cell death
cell death (BJAB B cells; 100 μM and 200 μM, 40 hours post-treatment): non-significant cell death
cell death ([1]; human primary CD4+ T cells, 100 μM and 200 μM, 40 hours post-treatment): non-significant cell death
cell death (human primary monocytes): non-significant cell death
change in nuclear c-Rel levels (c-Rel): no significant change
binding of c-Rel to CD28RE DNA (O-GlcNAcylated c-Rel [4]): reduced the binding of c-Rel
K562 cell death (Leukemia K562 cells): nearly comparable to that caused by known OGT inhibitor OSMI1

inhibitory effect on GMCSF expression, scrambled peptoid control (O-GlcNAcylated c-Rel [2]; FIG. 3 bottom right): no inhibitory effect
change in nuclear c-Rel levels (c-Rel): no significant change
binding of c-Rel to CD28RE DNA (O-GlcNAcylated c-Rel [4]): did not block the binding of c-Rel
Compound: CCCN(CC(=O)N(CC(N)=O)Cc1ccccc1)C(=O)CN(CCO)C(=O)CNCc1ccco1 [Compound 3] (H-[NFurfurylGly][Gly(N-CH2CH2OH)][NPrGly][Nphe]-NH2)
K562 cell death (Leukemia K562 cells): no significant cell death

expression of GMCSF (O-GlcNAcylated c-Rel [2]): well below the TCR-induced levels
expression of IL-2 (O-GlcNAcylated c-Rel [2]): well below the TCR-induced levels
Compound: COc1ccccc1[C@@H](NS(=O)(=O)c1ccc2[nH]c(=O)ccc2c1)C(=O)N(Cc1ccco1)Cc1cccs1 [OSMI1, reference compound]
